Measurements reported in patent US20260217765A1, “NOVEL ANTIMICROBIAL PEPTIDE DESIGNED FROM DUCK-DERIVED ANTIMICROBIAL PEPTIDE ANDUSE THEREOF” (INDUSTRY-ACADEMIC COOPERATION FOUNDATION, CHOSUN UNIVERSITY, priority 2023, published 2026).
In brackets after ≈: the same amount, converted by molar mass. Peptide text beside a SMILES is read from it.

Experiments:
[1] = tested on: plasmid DNA (pRSETB); test: Binding to bacterial DNA, agarose gel electrophoresis; settings: 260 ng plasmid DNA, DNA/peptide ratios 1:1 to 1:4, 37° C. 10 minutes
Method: Accordingly, to further elucidate the mechanism by which these novel peptides exert antimicrobial activity, it was examined whether the novel peptides dCATH-A6 and dCATH-A7 bind to intracellular bacterial DNA using electrophoresis.
Specifically, 260 ng of plasmid DNA (pRSETB) was reacted with each peptide at various ratios (lanes 1 through […] represent DNA only, 1:1, 1:2, 1:3, and 1:4 DNA/peptide ratios, respectively) at 37° C. for 10 minutes. The samples were then subjected to electrophoresis on a 1% agarose gel, stained with ethidium bromide (EtBr), and visualized under UV light.

[2] = tested on: Acinetobacter baumannii_isolate 10; assay type: cell-based, Acinetobacter baumannii; settings: isolate 10, 24 h
Method: (§1) Specifically, among the bacterial strains listed in Table 2, those known to form biofilms well (Acinetobacter baumannii KCTC 2508, Acinetobacter baumannii isolate 10, and isolate 14) were cultured in the appropriate media to the mid-log phase and diluted to a cell concentration of 5×10^4 cells/100 µL, followed by inoculation into microplates (SPL). Subsequently, the peptides prepared in <Example 1> were serially 10-fold diluted with 10 mM sodium phosphate buffer (pH 7.2), and 10 μL of each dilution was added to each well. The plates were then incubated at 37° C. for 24 hours. After completely removing the supernatant, the plates were fixed with 100% methanol for 15 minutes, stained with crystal violet staining solution for 1 hour, washed three times, and then the stain was solubilized with 95% ethanol. Absorbance was measured at 595 nm using a microplate reader to determine the MBIC values for each bacterial strain.

[3] = tested on: Acinetobacter baumannii_isolate 14; assay type: cell-based, Acinetobacter baumannii; settings: isolate 14, 24 h
Method: as §1

[4] = tested on: Acinetobacter baumannii KCTC 2508; assay type: cell-based; settings: KCTC 2508, 24 h
Method: as §1

[5] = tested on: Acinetobacter baumannii KCTC 2508; assay type: cell-based; settings: various salt concentrations
Method: To determine whether the peptides prepared in <Example 1> retain antimicrobial activity under salt concentrations present in vivo, the minimal inhibitory concentration (MIC) of the peptides was measured under various salt concentrations. Specifically, among the bacterial strains listed in Table 2, Acinetobacter baumannii KCTC 2508 was cultured in suitable medium to the mid-log phase, then diluted to a concentration of 2×10^4 cells/100 μL and dispensed into a microtiter plate (Nunc, USA). The peptides prepared in <Example 1> were serially diluted two-fold under various salt concentration conditions and added to the wells, followed by incubation at 37° C. for 18 hours. Absorbance at 600 nm was measured using a microtiter plate reader (Merck ELISA reader, Germany) to determine the MIC values for each strain. The parent peptide dCATH was used as a control.

[6] = tested on: Acinetobacter baumannii_isolate 4 (antibiotic-resistant); assay type: cell-based, Acinetobacter baumannii; settings: isolate 4 (antibiotic-resistant)
In short: (§2)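 Antibiotic-resistant A. baumannii isolates grown to mid-log phase, diluted to 2×10^4 cells/100 μL and exposed to 2-fold serial peptide dilutions for 18 h at 37° C. MIC taken as lowest concentration preventing visible growth, read by absorbance at 600 nm; parent peptide dCATH served as control.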

[7] = tested on: Acinetobacter baumannii_isolate20 (antibiotic-resistant); assay type: cell-based, Acinetobacter baumannii; settings: isolate20 (antibiotic-resistant)
In short: as §2

[8] = tested on: Acinetobacter baumannii_isolate 22 (antibiotic-resistant); assay type: cell-based, Acinetobacter baumannii; settings: isolate 22 (antibiotic-resistant)
In short: as §2

[9] = tested on: Acinetobacter baumannii_isolate 25 (antibiotic-resistant); assay type: cell-based, Acinetobacter baumannii; settings: isolate 25 (antibiotic-resistant)
In short: as §2

[10] = tested on: Acinetobacter baumannii_isolate 12 (antibiotic-resistant); assay type: cell-based, Acinetobacter baumannii; settings: isolate 12 (antibiotic-resistant)
In short: as §2

[11] = tested on: Acinetobacter baumannii_isolate 3 (antibiotic-resistant); assay type: cell-based, Acinetobacter baumannii; settings: isolate 3 (antibiotic-resistant)
In short: as §2

[12] = tested on: Acinetobacter baumannii_isolate 10 (antibiotic-resistant); assay type: cell-based, Acinetobacter baumannii; settings: isolate 10 (antibiotic-resistant)
In short: as §2

[13] = tested on: Acinetobacter baumannii membrane; test: Flow cytometry, propidium iodide, action on bacterial membrane; assay type: cell-based; settings: peptide at twice the MIC, 37° C. 10 minutes
Method: To determine whether the peptides prepared in <Example 1> act on bacterial membranes, the parent peptide and the novel peptides dCATH-A1, dCATH-A2, dCATH-A3, dCATH-A4, dCATH-A5, dCATH-A6, and dCATH-A7 were analyzed using flow cytometry.
Specifically, Acinetobacter baumannii was treated with each peptide at twice the minimum inhibitory concentration (MIC), followed by incubation at 37° C. for 10 minutes. The supernatant was then removed by centrifugation at 10,000 rpm, and the bacterial cells were stained with propidium iodide (PI) at a concentration of 10 μg/mL at 4° C. for 30 minutes. Unbound PI was removed by centrifugation, and 1 mL of phosphate-buffered saline (PBS) was added to disperse any cell clumps. The effect of the peptides on the bacterial membrane was then assessed using a Beckman flow cytometer.

SMILES	binding to DNA (electrophoresis) [1]	MBIC [2] [µM]	MBIC [3] [µM]	MBIC [4] [µM]	antimicrobial activity (MIC) under salt conditions compared to the parent peptide dCATH [5]	MIC [6] [µM]	MIC [7] [µM]	MIC [8] [µM]	MIC [9] [µM]	MIC [10] [µM]	MIC [11] [µM]	MIC [12] [µM]	membrane damage in Acinetobacter baumannii (shift in PI fluorescence signal) [13]
CC[C@H](C)[C@H](NC(=O)[C@H](C)NC(=O)[C@H](CCCCN)NC(=O)[C@H](CCCCN)NC(=O)[C@@H](NC(=O)[C@H](CC(C)C)NC(=O)[C@H](CCC(N)=O)NC(=O)[C@H](C)NC(=O)[C@H](C)NC(=O)[C@H](CCCNC(=N)N)NC(=O)[C@@H](N)CCCCN)C(C)C)C(=O)N[C@@H](CCCCN)C(=O)N[C@@H](CCCCN)C(=O)N[C@@H](Cc1ccc(O)cc1)C(=O)N[C@@H](CCCNC(=N)N)C(=O)N[C@@H](C)C(=O)N[C@@H](Cc1c[nH]c2ccccc12)C(=O)N[C@@H](CCCCN)C(=O)N[C@@H](CCCNC(=N)N)C(=O)N[C@@H](CCCNC(=N)N)C(N)=O [dCATH-A6] (H-KRAAQLVKKAIKKYRAWKRR-NH2; N-terminus assumed)	did bind to DNA	2	2	2	lower MIC values than the control	1 (≈ 2.5 µg/mL)	1 (≈ 2.5 µg/mL)	1 (≈ 2.5 µg/mL)	2 (≈ 5 µg/mL)	1 (≈ 2.5 µg/mL)	1 (≈ 2.5 µg/mL)	2 (≈ 5 µg/mL)	no damage to the bacterial membrane
CC[C@H](C)[C@H](NC(=O)[C@H](C)NC(=O)[C@H](CC(C)C)NC(=O)[C@@H]1CCCN1C(=O)[C@@H](NC(=O)[C@H](CC(C)C)NC(=O)[C@H](CCC(N)=O)NC(=O)[C@H](Cc1c[nH]c2ccccc12)NC(=O)[C@H](Cc1ccccc1)NC(=O)[C@H](CCCNC(=N)N)NC(=O)[C@@H](N)CCCCN)C(C)C)C(=O)N[C@@H](CCCCN)C(=O)N[C@H](C(=O)N[C@@H](Cc1ccc(O)cc1)C(=O)N[C@@H](CCCNC(=N)N)C(=O)N[C@@H](C)C(=O)N[C@@H](Cc1c[nH]c2ccccc12)C(=O)N[C@@H](CCCCN)C(=O)N[C@@H](CCCNC(=N)N)C(=O)N[C@@H](CCCNC(=N)N)C(N)=O)[C@@H](C)CC [dCATH, reference compound] (H-KRFWQLVPLAIKIYRAWKRR-NH2; N-terminus assumed)	no detectable binding to DNA	4	4	4		2 (≈ 5.26 µg/mL)	2 (≈ 5.26 µg/mL)	2 (≈ 5.26 µg/mL)	2 (≈ 5.26 µg/mL)	2 (≈ 5.26 µg/mL)	2 (≈ 5.26 µg/mL)	2 (≈ 5.26 µg/mL)	induced membrane damage
CC[C@H](C)[C@H](NC(=O)[C@H](C)NC(=O)[C@H](CCCCN)NC(=O)[C@H](CCCCN)NC(=O)[C@@H](NC(=O)[C@H](CC(C)C)NC(=O)[C@H](CCC(N)=O)NC(=O)[C@H](C)NC(=O)[C@H](C)NC(=O)[C@H](CCCNC(=N)N)NC(=O)[C@@H](N)CCCCN)C(C)C)C(=O)N[C@@H](CCCCN)C(=O)N[C@@H](CCCCN)C(=O)N[C@@H](Cc1ccc(O)cc1)C(=O)N[C@@H](CCCNC(=N)N)C(=O)N[C@@H](C)C(=O)N[C@@H](Cc1c[nH]c2ccccc12)C(=O)N[C@@H](CCCCN)C(N)=O [dCATH-A7, KRAAQLVKKAIKKYRAWK] (H-KRAAQLVKKAIKKYRAWK-NH2; N-terminus assumed)	did bind to DNA	2	1	2	lower MIC values than the control	1 (≈ 2.19 µg/mL)	1 (≈ 2.19 µg/mL)	1 (≈ 2.19 µg/mL)	1 (≈ 2.19 µg/mL)	1 (≈ 2.19 µg/mL)	1 (≈ 2.19 µg/mL)	1 (≈ 2.19 µg/mL)	no damage to the bacterial membrane
CC[C@H](C)[C@H](NC(=O)[C@H](C)NC(=O)[C@H](CC(C)C)NC(=O)[C@@H]1CCCN1C(=O)[C@@H](NC(=O)[C@H](CC(C)C)NC(=O)[C@H](CCC(N)=O)NC(=O)[C@H](C)NC(=O)[C@H](Cc1ccccc1)NC(=O)[C@H](CCCNC(=N)N)NC(=O)[C@@H](N)CCCCN)C(C)C)C(=O)N[C@@H](CCCCN)C(=O)N[C@H](C(=O)N[C@@H](Cc1ccc(O)cc1)C(=O)N[C@@H](CCCNC(=N)N)C(=O)N[C@@H](C)C(=O)N[C@@H](Cc1c[nH]c2ccccc12)C(=O)N[C@@H](CCCCN)C(=O)N[C@@H](CCCNC(=N)N)C(=O)N[C@@H](CCCNC(=N)N)C(N)=O)[C@@H](C)CC [dCATH-A2] (H-KRFAQLVPLAIKIYRAWKRR-NH2; N-terminus assumed)		2	2	4		2 (≈ 5.03 µg/mL)	1 (≈ 2.51 µg/mL)	1 (≈ 2.51 µg/mL)	1 (≈ 2.51 µg/mL)	1 (≈ 2.51 µg/mL)	1 (≈ 2.51 µg/mL)	2 (≈ 5.03 µg/mL)	
